One assay relates to lung ILC2s. The assay is described as follows: Flow cytometry of proliferation, transcription factor and signalling markers in lung ILC2s. The class given is cell-based, mouse. To be noted: BALB/cByJ mice, rm-IL-33 0.5 μg, agonist 125 μg, three consecutive days. From the text:
FIGS. 5A-5F: Cholinergic signal attenuates ILC2 proliferation and GATA3 expression. (FIG. 5A) Mean fluorescence intensity of Ki67 and percentage of Ki67+ cells in isolated lung ILC2s, stimulated with IL-33 in the absence and presence of α7nAChR. (FIG. 5B) Mean fluorescence intensity of GATA3 in isolated lung ILC2s, stimulated with IL-33 in the absence and presence of α7nAChR. One representative experiment of two is shown (n=5; Student's t test *, p<0.05; **, p<0.01; ***p<0.001). […] FACS-purified ILC2s from WT mice challenged with rm-IL-33 with or without α7nAChR agonist as described in FIG. 3A were quantified by NanoString nCounter technology. Data range from −1 to +1 for the most reduced and most increased gene expression, respectively. (FIG. 5D) Expression of NF-κB p65 in isolated lung ILC2s from mice challenged with IL-33 with (dotted line) or without (thick line) α7nAChR agonist. The level of isotype-matched stain control is shown as a gray-filled histogram. (FIG. 5E) Expression of phosphorylated IKKα/β (Ser176/180) in isolated lung ILC2s stimulated with IL-33, with (dotted line) or without (thick line) α7nAChR agonist for 24 hours. The level of isotype-matched stain control is shown as a gray-filled histogram. (FIG. 5F) Mean fluorescence intensity of phosphorylated IKKα/β with or without α7nAChR agonist.
FIGS. 9A-9C: Effect of α7nAChR agonist on some marker expressions by ILC2s. A cohort of BALB/cByJ mice were intranasally challenged with rm-IL-33 (0.5 μg) with or without α7nAChR agonist (125 μg) for three consecutive days. Histogram and MFI of CD25 (FIG. 9A), CD127 (FIG. 9B) and ST2 (FIG. 9C) in isolated lung ILC2s. Data are representative of at least two independent experiments and are presented as means±SEM (n=4; Student's t test *, p<0.05).
Biotinylated anti-mouse lineage (CD3e (145-2C11), CD45R (RA3-3B2), Gr-1 (RB6-8C5), CD11c (N418), CD11b (M1/70), Ter119 (TER-119), NK1.1 (PK136), TCR-β (H57-597), TCR-γδ (GL3), and FcεRIα (MAR-1), Streptavidin-FITC, FITC anti-mouse CD3 (145-2C11), BV510 anti-mouse CD4 (RM4-5), APC-Cy7 anti-mouse CD25 (PC61), PE anti-mouse CD25 (PC61), BV421 anti-mouse CD25 (PC61), BV510 anti-mouse CD90.2 (53-2.1), APC anti-mouse CD127 (A7R34), PE-Cy7 anti-mouse CD127 (A7R34), FITC anti-mouse CD45 (30F-11), PE/Cy7 anti-mouse CD45 (30-F11), PE anti-mouse IL-5 (TRFK5), BV421 anti-mouse GATA3 (16E10A23), 7-AAD Viability staining solution, purchased from BioLegend (San Diego, Calif.). PE anti-mouse ST2 (IL-33R, RMST2-2), PerCP-eFluor710 anti-Mouse ST2 (RMST2-2), Streptavidin APC-eFluor780, Alexa Fluor647 labeled anti-IL-4 (clone 11B11), eFluor 450 anti-mouse CD45 (30F-11), eFluor450 anti-CD44 (clone IM7), eFluor-660 anti-mouse Ki-67 (SollA15), PE/Cy7 anti-mouse IL-13 (eBio13A), anti-mouse BCL-2 (10C4), were purchased from eBioscience. Alexa Fluor 488 anti-mouse p65-NF-κB (532301) was purchased from R&D Systems (dilution 1:50). Alexa Fluor 647 conjugated α-bungarotoxin (Invitrogen, San Diego, Calif.). PE anti-mouse Phospho-IKKα/β (Ser 176/180) (16A6) was purchased from Cell Signaling Technology (dilution 1:50). PE anti-rat α7nAChR (319) was purchased from Santa Cruz Biotechnology (dilution 1:50). This antibody has been used to identify this receptor previously in several studies^69. Lineage marker antibodies were used at the dilution of 1:400, unless mentioned otherwise other antibodies were used at the dilution of 1:200.
Intracellular staining was performed using BD Cytofix/Cytoperm kit (BD Bioscience, San Jose, Calif.) according to the manufacturer's instructions. For analysis of GATA3 and Ki-67 expression, freshly isolated cells were fixed and permeabilized using Fixation/Permeabilization buffer kit (eBioscience) according to the manufacturer's instructions and as previously described^70.
On the technique in general: In flow cytometry, cells or beads pass a laser one at a time.

For assay [1] the following is noted: cited from earlier work.

Take “3-[(3E)-3-[(2,4-dimethoxyphenyl)methylidene]-5,6-dihydro-4H-pyridin-2-yl]pyridine [GTS-21]”: the “expression of CD25, CD127, and ST2 by ILC2s” value in the assay on lung ILC2s is recorded as “did not alter”.
As to `CN1CCCC1c1cccnc1` (stereo not shown) [nicotine], in assay [1] (HDM-induced asthma model), the AHR entry is “not suppressed” and the Th2 cytokines result is reported as “suppression”. The “HDM-induced allergic lung inflammation” value in assay [1] (asthma model) is reported as “attenuated”.

Source of the values: US20190247376A1, “NICOTINIC ACETYLCHOLINE RECEPTOR AGONIST ATTENUATES ILC2-DEPENDENT AIRWAY HYPERREACTIVITY” (University of Southern California, priority 2016, published 2019).
